Assay [1] deals with T1, His-TEV-DYRK1A Kinase domain (aa127-485) (Homo sapiens, UniProt Q13627).
T1 construct: His-TEV-DYRK1A Kinase domain (aa127-485); His tag (N); TEV protease cleavage site (N)
The experiment in a line: Kinase ADP assay (ADP Hunter), DYRK1A kinase domain. It counts as biochemical. The settings on record: 20 μM ATP. The method in brief: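 Readout is ADP Hunter fluorescence at 590 nm, developed 20 min at 30 °C after the kinase step. That step ran 10 min at 30 °C in Hepes pH 7.4 (10 mM MgCl2, 1 mM EGTA, 0.02% Tween20) containing 20 μM ATP, 40 μM peptide and 20 nM enzyme plus compound.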

The target in the next assay is T2, CDK9 (Homo sapiens, UniProt P50750).
T2 construct: full-length human kinases from Carna Biosciences; purchased Carna Biosciences 04-110
T2 sequence (P50750 whole entry): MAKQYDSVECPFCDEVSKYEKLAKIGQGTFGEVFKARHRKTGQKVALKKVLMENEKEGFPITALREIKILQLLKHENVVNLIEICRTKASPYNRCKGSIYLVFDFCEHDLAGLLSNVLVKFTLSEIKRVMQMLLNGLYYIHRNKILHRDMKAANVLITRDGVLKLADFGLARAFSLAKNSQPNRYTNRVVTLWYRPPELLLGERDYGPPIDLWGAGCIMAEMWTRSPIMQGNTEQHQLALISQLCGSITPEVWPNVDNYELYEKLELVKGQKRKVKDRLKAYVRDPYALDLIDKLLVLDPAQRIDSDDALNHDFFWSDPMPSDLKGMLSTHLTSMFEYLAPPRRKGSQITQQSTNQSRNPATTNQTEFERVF
T2 sequence (O60563 whole entry partner): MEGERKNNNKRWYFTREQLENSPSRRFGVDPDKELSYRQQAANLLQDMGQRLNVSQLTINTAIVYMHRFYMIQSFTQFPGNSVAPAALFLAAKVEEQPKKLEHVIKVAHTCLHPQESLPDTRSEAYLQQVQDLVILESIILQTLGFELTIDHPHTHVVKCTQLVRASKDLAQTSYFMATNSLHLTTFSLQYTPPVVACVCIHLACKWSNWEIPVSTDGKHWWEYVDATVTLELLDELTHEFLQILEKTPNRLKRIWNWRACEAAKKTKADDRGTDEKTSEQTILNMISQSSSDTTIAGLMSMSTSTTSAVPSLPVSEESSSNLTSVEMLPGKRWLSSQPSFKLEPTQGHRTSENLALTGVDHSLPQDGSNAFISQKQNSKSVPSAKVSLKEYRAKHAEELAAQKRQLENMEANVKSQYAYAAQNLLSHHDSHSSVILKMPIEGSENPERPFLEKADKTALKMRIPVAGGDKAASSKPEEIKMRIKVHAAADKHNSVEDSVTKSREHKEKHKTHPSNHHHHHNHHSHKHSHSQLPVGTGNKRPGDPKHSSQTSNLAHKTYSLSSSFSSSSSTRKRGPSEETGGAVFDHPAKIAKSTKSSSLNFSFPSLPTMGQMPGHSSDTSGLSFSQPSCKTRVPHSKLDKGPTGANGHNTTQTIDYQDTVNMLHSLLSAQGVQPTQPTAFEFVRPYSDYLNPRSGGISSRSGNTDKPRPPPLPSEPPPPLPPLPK
Briefly: Kinase TR-FRET assay, CDK9. The settings on record: full-length human kinase, 10 μM ATP. The assay is classed as biochemical. The protocol:
Inhibition of the enzymatic activity of human kinases was evaluated in a Time-Resolved Fluorescence Resonance Energy Transfer (TR-FRET) assay in 384-well reaction plates. In this assay, full-length human kinases from Carna Biosciences—DYRK1A (NM_001396, ref. 04-130; 2.0 ng/μl), DYRK1B (NM_004714, ref. 04-131; 1.2 ng/p), CLK1 (NM_001162407, ref. 04-126; 0.7 ng/μl), CDK9 (NM_001261, ref. 04-110; 0.9 ng/μl), or GSK3β (NM_001146156, ref. 04-141; 2.0 ng/μl—were incubated for 40 minutes (DYRK1A and DYRK1B) or 100 minutes (CLK1, CDK9 and GSK3β) at room temperature with ATP (Sigma A2383, 10 μM) and a ULight™-labelled human Myelin Basic Protein (MBP) peptide substrate (Perkin Elmer TRF0109, 100 nM) in a reaction buffer composed of 50 mM HEPES pH7.4, 1 mM EGTA, 10 mM MgCl2, 2 mM DTT and 0.01% Tween20. Test compounds of the invention were added in reaction buffer at a range of concentrations from 0.1 nM to 30 μM. Following addition of EDTA (Sigma E7889, 10 mM) to stop the reaction, Europium-labelled mouse monoclonal antibody recognizing phospho-Thr232 in MBP (Perkin Elmer TRF0201, 1 nM) was added. After one hour, the reaction plates were read using a fluorescence reader (EnVision®, Perkin Elmer) at 620 nm and 665 nm (excitation at 340 nm); when the Europium donor fluorophore is excited by light at 340 nm, an energy transfer (620 nm) to the acceptor occurs, which will then emit light at 665 nm.
Background: In TR-FRET formats the signal depends on donor and acceptor labels being close together.

In assay [2] the target is T3, DYRK1A (Homo sapiens, UniProt Q13627). The experiment in a line: Kinase TR-FRET assay, DYRK1A. It counts as biochemical. Set-up: full-length, wild-type human DYRK1A (NM_001396) with an HA tag; expressed in transfected cells; host or cells: human U2-OS osteosarcoma cells, transient transfection of a pcDNA3.1 plasmid. The settings on record: full-length human kinase, 10 μM ATP. The protocol:
(§1) Inhibition of the enzymatic activity of human kinases was evaluated in a Time-Resolved Fluorescence Resonance Energy Transfer (TR-FRET) assay in 384-well reaction plates. […] Test compounds of the invention were added in reaction buffer at a range of concentrations from 0.1 nM to 30 μM. Following addition of EDTA (Sigma E7889, 10 mM) to stop the reaction, Europium-labelled mouse monoclonal antibody recognizing phospho-Thr232 in MBP (Perkin Elmer TRF0201, 1 nM) was added.

The next assay concerns the target T4, DYRK1B (Homo sapiens, UniProt Q9Y463).
T4 construct: full-length human kinases from Carna Biosciences; purchased Carna Biosciences 04-131
The experiment in a line: Kinase TR-FRET assay, DYRK1B. The assay is classed as biochemical. The settings on record: full-length human kinase, 10 μM ATP. The protocol: as §1

Assay [3] has as its target T3, DYRK1A. Briefly: Cellular DYRK1 autophosphorylation assay in U2-OS cells. It counts as cell-based. Set-up: full-length, wild-type human DYRK1A (NM_001396) with an HA tag; expressed in transfected cells; host or cells: human U2-OS osteosarcoma cells, transient transfection of a pcDNA3.1 plasmid. The settings on record: U2-OS cells transfected with HA-tagged human DYRK1A, 5 hours exposure; read-out: IC50 (μM) P-Ser520-Dyrk1A -Cell assay. In a few lines:
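IC50 derived from dose-response curves of phospho-Ser520-DYRK1A (blots normalised to total DYRK1A), quantified by either immunoblotting with chemiluminescence or Mesoscale electrochemiluminescent ELISA. Compounds applied to U2-OS cells across several concentrations for 5 hours.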

The structures appear in SMILES notation.

T4 sequence (Q9Y463 whole entry): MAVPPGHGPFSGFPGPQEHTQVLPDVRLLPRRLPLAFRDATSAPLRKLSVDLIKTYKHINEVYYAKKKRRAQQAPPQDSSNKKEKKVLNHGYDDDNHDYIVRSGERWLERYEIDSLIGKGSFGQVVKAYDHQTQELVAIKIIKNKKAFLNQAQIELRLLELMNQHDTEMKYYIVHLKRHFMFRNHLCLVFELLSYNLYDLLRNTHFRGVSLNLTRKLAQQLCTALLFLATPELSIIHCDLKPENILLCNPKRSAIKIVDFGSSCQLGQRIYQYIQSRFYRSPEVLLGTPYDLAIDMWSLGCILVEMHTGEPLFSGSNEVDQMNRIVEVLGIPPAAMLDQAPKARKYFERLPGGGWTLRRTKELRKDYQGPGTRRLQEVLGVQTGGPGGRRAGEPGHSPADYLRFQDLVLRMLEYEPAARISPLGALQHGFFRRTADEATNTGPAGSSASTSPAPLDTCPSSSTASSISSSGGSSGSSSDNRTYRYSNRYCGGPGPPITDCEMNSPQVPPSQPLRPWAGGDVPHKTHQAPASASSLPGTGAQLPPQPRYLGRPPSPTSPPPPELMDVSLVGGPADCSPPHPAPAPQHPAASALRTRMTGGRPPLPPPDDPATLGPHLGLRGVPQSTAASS

As to `Cc1nc2ccc(-c3cc(N)nc(N)c3)nc2n1Cc1cccnc1` [Example 7, 4-[2-methyl-3-(pyridin-3-ylmethyl)-3H-imidazo[4,5-b]pyridin-5-yl]pyridine-2,6-diamine], the figures for the 50% inhibitory concentration (IC50) (in assay [1]; against CDK9; against DYRK1A [2]) were 0.079 µM, 2.38 µM and 0.07 µM, respectively.
In the case of `Cc1nc2ccc(-c3cc(N)nc(N)c3)nc2n1C1Cc2ccccc2C1` [Example 12, 4-[3-(2,3-dihydro-1H-inden-2-yl)-2-methyl-3H-imidazo[4,5-b]pyridin-5-yl]pyridine-2,6-diamine], the IC50 (commonly the midpoint of a concentration-inhibition curve) in assay [1] is 0.009 µM; against DYRK1B, 0.003 µM; against DYRK1A [2], 0.002 µM; on DYRK1A [3] it was 0.07 µM.
With `Cc1nc2ccc(-c3cc(N)nc(N)c3)nc2n1CCC1CC1` [Example 17, 4-[3-(2-cyclopropylethyl)-2-methyl-3H-imidazo[4,5-b]pyridin-5-yl]pyridine-2,6-diamine], the values for the IC50 (in assay [1]; against DYRK1A [2]; at DYRK1A [3]) were 0.011 µM, 0.006 µM and 0.063 µM, respectively.
As for `CCC(CC)Cn1c(C)nc2ccc(-c3cc(N)nc(N)c3)nc21` [Example 18, 4-[3-(2-ethylbutyl)-2-methyl-3H-imidazo[4,5-b]pyridin-5-yl]pyridine-2,6-diamine], the IC50 in assay [1] amounted to 0.013 µM; against DYRK1A [2], 0.002 µM; at DYRK1A [3] it was 0.108 µM.
Turning to `Cc1nc2ccc(-c3cc(N)nc(N)c3)nc2n1CCc1cnn(-c2ccccc2)c1` [Example 21, 4-{2-methyl-3-[2-(1-phenyl-1H-pyrazol-4-yl)ethyl]-3H-imidazo[4,5-b]pyridin-5-yl}pyridine-2,6-diamine], the IC50 in assay [1] was determined as 0.053 µM; against CDK9 it was 12.5 µM; against DYRK1A [2], 0.015 µM.
As for `Cc1nc2ccc(-c3cc(N)nc(N)c3)nc2n1CC(F)(F)F` [Example 28, 4-[2-methyl-3-(2,2,2-trifluoroethyl)-3H-imidazo[4,5-b]pyridin-5-yl]pyridine-2,6-diamine], half-maximal inhibition against CDK9 (IC50) was put at 5.7 µM.
As to `CSCCCn1c(C)nc2ccc(-c3cc(N)nc(N)c3)nc21` [Example 44, 4-{2-methyl-3-[3-(methylsulfanyl)propyl]-3H-imidazo[4,5-b]pyridin-5-yl}pyridine-2,6-diamine], the IC50 in assay [1] was determined as 0.011 µM; against DYRK1A [2], 0.019 µM; at DYRK1A [3], 0.023 µM.
For the molecule `Cc1nc2ccc(-c3cc(N)nc(N)c3)nc2n1Cc1cc(OC(F)(F)F)ccc1F` [Example 50, 4-{3-[2-fluoro-5-(trifluoromethoxy)benzyl]-2-methyl-3H-imidazo[4,5-b]pyridin-5-yl}pyridine-2,6-diamine], the IC50 is 0.057 µM in assay [1], 1.99 µM against CDK9 and 0.029 µM against DYRK1A [2].
Take `Cc1nc2ccc(-c3cc(N)nc(N)c3)nc2n1CCC(C)(C)C` [Example 52, 4-[3-(3,3-dimethylbutyl)-2-methyl-3H-imidazo[4,5-b]pyridin-5-yl]pyridine-2,6-diamine]: the IC50 in assay [1] stood at 0.006 µM; against DYRK1B, 0.008 µM; against DYRK1A [2], 0.006 µM.
At CDK9, `Cc1nc2ccc(-c3cc(N)nc(N)c3)nc2n1C(C)C` [Example 53, 4-[2-methyl-3-(propan-2-yl)-3H-imidazo[4,5-b]pyridin-5-yl]pyridine-2,6-diamine] displayed an IC50 of 1.31 µM.
On to `Cc1nc2ccc(-c3cc(N)nc(N)c3)nc2n1C1CCCCC1` [Example 54, 4-(3-cyclohexyl-2-methyl-3H-imidazo[4,5-b]pyridin-5-yl)pyridine-2,6-diamine], for which the IC50 amounted to 0.006 µM in assay [1], 0.003 µM against DYRK1B, 0.003 µM at DYRK1A [2] and 0.023 µM on DYRK1A [3].
Take `Cc1nc2ccc(-c3cc(N)nc(N)c3)nc2n1CC1CCCCC1` [Example 55, 4-[3-(cyclohexylmethyl)-2-methyl-3H-imidazo[4,5-b]pyridin-5-yl]pyridine-2,6-diamine]: the IC50 in assay [1] was 0.024 µM; at DYRK1B it was 0.021 µM; at DYRK1A [2], 0.002 µM; on DYRK1A [3], 0.16 µM.
Turning to `Cc1nc2ccc(-c3cc(N)nc(N)c3)nc2n1C1CC2CCC1C2` (stereo not shown) [Example 155, 4-[3-(bicyclo[2.2.1]hept-2-yl)-2-methyl-3H-imidazo[4,5-b]pyridin-5-yl]pyridine-2,6-diamine], the IC50 in assay [1] was determined as 0.005 µM; against DYRK1A [2], 0.012 µM.
In the case of `CCc1nc2ccc(-c3cc(N)nc(N)c3)nc2n1C1Cc2ccccc2C1` [Example 158, 4-[3-(2,3-dihydro-1H-inden-2-yl)-2-ethyl-3H-imidazo[4,5-b]pyridin-5-yl]pyridine-2,6-diamine], the IC50 in assay [1] was determined as 0.014 µM; against DYRK1B, 0.016 µM; against DYRK1A [2] it was 0.008 µM.
Consider `CCCc1nc2ccc(-c3cc(N)nc(N)c3)nc2n1C1CCCC1` [Example 160, 4-(3-cyclopentyl-2-propyl-3H-imidazo[4,5-b]pyridin-5-yl)pyridine-2,6-diamine], for which the IC50 in assay [1] came to 0.024 µM; against DYRK1B it was 0.068 µM; against DYRK1A [2] it was 0.003 µM; on DYRK1A [3] it was 0.144 µM.
On to `Cn1c(C(F)F)nc2ccc(-c3cc(N)nc(N)c3)nc21` [Example 228, 4-[2-(difluoromethyl)-3-methyl-3H-imidazo[4,5-b]pyridin-5-yl]pyridine-2,6-diamine], for which the values for the IC50 (in assay [1]; against DYRK1B; against DYRK1A [2]) were 0.01 µM, 0.012 µM and 0.004 µM, respectively.
Regarding `Cn1c(C(F)(F)F)nc2ccc(-c3cc(N)nc(N)c3)nc21` [Example 229, 4-[3-methyl-2-(trifluoromethyl)-3H-imidazo[4,5-b]pyridin-5-yl]pyridine-2,6-diamine], the IC50 in assay [1] worked out at 0.081 µM; at DYRK1A [2] it was 0.061 µM.
As for `CCCCn1c(C)nc2ccc(-c3cc(N)nc(NC(=O)COc4ccccc4)c3)nc21` [Example 230, N-[6-amino-4-(3-butyl-2-methyl-3H-imidazo[4,5-b]pyridin-5-yl)pyridin-2-yl]-2-phenoxyacetamide], the IC50 in assay [1] was determined as 0.928 µM; at DYRK1A [2], 0.221 µM.
In the case of `CCCCn1c(C)nc2ccc(-c3cc(N)nc(NC(=O)c4ccccc4Cl)c3)nc21` [Example 233, N-[6-amino-4-(3-butyl-2-methyl-3H-imidazo[4,5-b]pyridin-5-yl)pyridin-2-yl]-2-chlorobenzamide], the IC50 in assay [1] worked out at 0.303 µM; against DYRK1A [2], 0.224 µM.
Taken in the same sequence, the figures for `CCCCn1c(C)nc2ccc(-c3cc(N)nc(NC(=O)C4CCCCC4)c3)nc21` [Example 234, N-[6-amino-4-(3-butyl-2-methyl-3H-imidazo[4,5-b]pyridin-5-yl)pyridin-2-yl]cyclohexanecarboxamide] were 0.236 µM and 0.09 µM.
Take `CCCCn1c(C)nc2ccc(-c3ccnc(N)c3)nc21` [Example 236, 4-(3-butyl-2-methyl-3H-imidazo[4,5-b]pyridin-5-yl)pyridin-2-amine]: the IC50 was 0.023 µM in assay [1], 0.018 µM at DYRK1B and 0.013 µM at DYRK1A [2].
Take `Cc1nc2ccc(-c3ccnc(N)c3)nc2n1CC1CC1` [Example 238, 4-[3-(cyclopropylmethyl)-2-methyl-3H-imidazo[4,5-b]pyridin-5-yl]pyridin-2-amine]: the IC50 was determined as 0.05 µM in assay [1], 0.02 µM at DYRK1B and 0.009 µM on DYRK1A [2].

The record behind these values is patent US20180273528A1 (LES LABORATOIRES SERVIER, priority 2015, published 2018).
